Experimental findings from ChEMBL document CHEMBL1158583, “3-(2-Aminocarbonylphenyl)propanoic acid analogs as potent and selective EP3 receptor antagonists. Part 3: Synthesis, metabolic stability, and biological evaluation of optically active analogs” (Bioorg Med Chem, 2010) are described below.

A short description of series [1]: (§1) AUC in rat at […], iv. Also on record: dose 2.7 mg/kg, route intravenous. Particulars: plasma. Format: ADME, organism-based.
Series [2] in a line: (§2) Volume of distribution at steady state in rat at […], iv. Also on record: dose 2.7 mg/kg, route intravenous. Format: ADME, organism-based. Particulars: in vivo, read-out: Vdss.
Series [3] can be described thus: (§3) AUC in rat at 10 mg/kg, po. Format: ADME, organism-based, Plasma. Details: dose 10 mg/kg, route oral. The conditions noted are these: plasma.
Series [4] in a line: (§4) Oral bioavailability in rat at 10 mg/kg. Format: ADME, organism-based. The conditions noted are these: in vivo.
A short description of series [5]: as §1. In kind it is ADME, organism-based. Also on record: dose 1.2 mg/kg, route intravenous. Particulars: plasma.
Series [6] can be described thus: as §2. Format: ADME, organism-based. Details: dose 1.2 mg/kg, route intravenous. The conditions noted are these: in vivo, read-out: Vdss.
Series [7] can be described thus: Cmax in rat at 10 mg/kg, po. Also on record: dose 10 mg/kg, route oral. The conditions noted are these: in vivo. In kind it is ADME, organism-based.
Series [8] can be described thus: as §1. Format: ADME, organism-based. Also on record: dose 1.8 mg/kg, route intravenous. The conditions noted are these: plasma.
A short description of series [9]: as §2. Format: ADME, organism-based. Details: dose 1.8 mg/kg, route intravenous. Particulars: in vivo, read-out: Vdss.
Series [10] is described as follows: (§5) AUC in rat at 2 mg/kg, iv. In kind it is ADME, organism-based, Plasma. Also on record: dose 2 mg/kg, route intravenous. The conditions noted are these: plasma.
The nature of series [11]: Volume of distribution at steady state in rat at 2 mg/kg, iv. In kind it is ADME, organism-based. The conditions noted are these: in vivo, read-out: Vdss. Details: dose 2 mg/kg, route intravenous.
Series [12] concerns Rattus norvegicus. Described as §4. Format: ADME, organism-based. The conditions noted are these: in vivo.
In series [13] the test system is Rattus norvegicus. The description is as §5. The conditions noted are these: in vivo. In kind it is ADME, organism-based, Plasma. Also on record: dose 2 mg/kg, route intravenous.
The subject of series [14] is Rattus norvegicus. The series is described as §3. In kind it is ADME, organism-based, Plasma. Also on record: dose 10 mg/kg, route oral. Particulars: in vivo.

The AUC is the area under the concentration-time curve, a measure of exposure. With `Cc1cc(C)cc([C@@H](CC(C)C)NC(=O)c2cc(COc3ccccc3C)ccc2CCC(=O)O)c1`, the AUC in [1] is 890 ng·h/mL; in series [3], 1010 ng·h/mL. For the same molecule, the Vd in series [2] is 1.24 L/kg.
As usually defined, the bioavailability is the share of a dose that reaches the circulation, judged against a reference dose that is usually intravenous. A low value points to little systemic uptake. What is called Cmax is the peak of the concentration-time curve. In series [4], `Cc1cc(C)cc([C@@H](CC(C)C)NC(=O)c2cc(COc3cc(F)ccc3F)ccc2CCC(=O)O)c1` returned a bioavailability of 18%. This molecule also displayed an area under the curve (AUC) in series [5] of 681 ng·h/mL. Besides, the Vd in [6] turned out to be 0.39 L/kg. In series [7], the highest level (Cmax) was 190 ng/mL.
On to `Cc1cc(C)cc([C@@H](CC(C)C)NC(=O)c2cc(COc3cc(C)ccc3C)ccc2CCC(=O)O)c1`, for which, in [4], the bioavailability was found to be 54%. Further, the values for the AUC in [8] and in series [3] were 1370 ng·h/mL and 4100 ng·h/mL, respectively. For the same molecule, the Vd in series [9] was 0.67 L/kg. Further, the Cmax in series [7] amounted to 1350 ng/mL.
The molecule `Cc1cc(C)cc(Oc2ccc(CCC(=O)O)c(C(=O)N[C@H](CC(C)C)c3cc(C)cc(C)c3)c2)c1` yielded a bioavailability in series [4] of 21%. The AUC came out at 1370 ng·h/mL in [10] and 1430 ng·h/mL in [3]. Moreover, the Vd in series [11] is 0.56 L/kg. Further, the Cmax in series [7] is 950 ng/mL.
As to `Cc1cc(C)cc(Nc2ccc(CCC(=O)O)c(C(=O)N[C@H](CC(C)C)c3cc(C)cc(C)c3)c2)c1`, in the series on Rattus norvegicus [12], the bioavailability was 25%. Further, the AUC amounted to 2670 ng·h/mL with Rattus norvegicus [13] and 3270 ng·h/mL in the series with Rattus norvegicus [14]. Moreover, the Vd in [11] worked out at 1.03 L/kg. Further, in series [7], the peak concentration (Cmax) was found to be 1370 ng/mL.
